From patent US20220040219A1, “COMPOSITIONS AND METHODS FOR TREATING CYSTIC FIBROSIS” (SpliSense Ltd., priority 2019, published 2022)

Target: T1, CFTR del Ex23 (Homo sapiens, UniProt P13569, DEL1240-1291)
T1 construct: expressed in transfected cells; host or cells: HEK 293 cells, transient transfection with Lipofectamine 2000
Test: FLIPR membrane potential assay of CFTR function in HEK 293 cells transiently transfected with CFTR del Ex23
Type: cell-based
Conditions: forskolin 10 μM, addition of potentiator VX-770 (1 μM), FIG. 1B
Protocol: HEK cells were transiently transfected with a construct bearing a CFTR transcript having exon 23 completely deleted from it (CFTR del Ex23). Transfection was carried out using Lipofectamine 2000 transfection reagent (Invitrogen) according to the lipofectamine 2000 reagent protocol using the following lipofectamine amounts: 96 well—0.15 μl, 6 well—3 μl, […]—15 μl.
HEK cells transfected with the CFTR del Ex23 contruct were grown in 96-well (black, flat bottom; corning) plates. 48 hr post-transfection, CFTR channel function was analyzed using the FLIPR membrane potential assay as previously described (Molinski et al., 2015). Briefly, the cells were loaded with blue membrane potential dye (Molecular Devices), which can detect changes in transmembrane potential. The plate was then read in a fluorescence plate reader (BioTek Synergy H1) for baseline levels followed by CFTR stimulation using the cAMP agonist forskolin (10 μM; Sigma), DMSO vehicle was used as a negative control. CFTR-mediated depolarization of the plasma membrane was detected as an increase in fluorescence and hyperpolarization (or repolarization) as a decrease. […]
FLIPR™ (Fluorescence Imaging Plate Reader) is a functional system that allows measuring changes in membrane potential by a fluorescent indicator. […]

T1 sequence (P13569 with tags, fused parts or gaps DEL1240-1291): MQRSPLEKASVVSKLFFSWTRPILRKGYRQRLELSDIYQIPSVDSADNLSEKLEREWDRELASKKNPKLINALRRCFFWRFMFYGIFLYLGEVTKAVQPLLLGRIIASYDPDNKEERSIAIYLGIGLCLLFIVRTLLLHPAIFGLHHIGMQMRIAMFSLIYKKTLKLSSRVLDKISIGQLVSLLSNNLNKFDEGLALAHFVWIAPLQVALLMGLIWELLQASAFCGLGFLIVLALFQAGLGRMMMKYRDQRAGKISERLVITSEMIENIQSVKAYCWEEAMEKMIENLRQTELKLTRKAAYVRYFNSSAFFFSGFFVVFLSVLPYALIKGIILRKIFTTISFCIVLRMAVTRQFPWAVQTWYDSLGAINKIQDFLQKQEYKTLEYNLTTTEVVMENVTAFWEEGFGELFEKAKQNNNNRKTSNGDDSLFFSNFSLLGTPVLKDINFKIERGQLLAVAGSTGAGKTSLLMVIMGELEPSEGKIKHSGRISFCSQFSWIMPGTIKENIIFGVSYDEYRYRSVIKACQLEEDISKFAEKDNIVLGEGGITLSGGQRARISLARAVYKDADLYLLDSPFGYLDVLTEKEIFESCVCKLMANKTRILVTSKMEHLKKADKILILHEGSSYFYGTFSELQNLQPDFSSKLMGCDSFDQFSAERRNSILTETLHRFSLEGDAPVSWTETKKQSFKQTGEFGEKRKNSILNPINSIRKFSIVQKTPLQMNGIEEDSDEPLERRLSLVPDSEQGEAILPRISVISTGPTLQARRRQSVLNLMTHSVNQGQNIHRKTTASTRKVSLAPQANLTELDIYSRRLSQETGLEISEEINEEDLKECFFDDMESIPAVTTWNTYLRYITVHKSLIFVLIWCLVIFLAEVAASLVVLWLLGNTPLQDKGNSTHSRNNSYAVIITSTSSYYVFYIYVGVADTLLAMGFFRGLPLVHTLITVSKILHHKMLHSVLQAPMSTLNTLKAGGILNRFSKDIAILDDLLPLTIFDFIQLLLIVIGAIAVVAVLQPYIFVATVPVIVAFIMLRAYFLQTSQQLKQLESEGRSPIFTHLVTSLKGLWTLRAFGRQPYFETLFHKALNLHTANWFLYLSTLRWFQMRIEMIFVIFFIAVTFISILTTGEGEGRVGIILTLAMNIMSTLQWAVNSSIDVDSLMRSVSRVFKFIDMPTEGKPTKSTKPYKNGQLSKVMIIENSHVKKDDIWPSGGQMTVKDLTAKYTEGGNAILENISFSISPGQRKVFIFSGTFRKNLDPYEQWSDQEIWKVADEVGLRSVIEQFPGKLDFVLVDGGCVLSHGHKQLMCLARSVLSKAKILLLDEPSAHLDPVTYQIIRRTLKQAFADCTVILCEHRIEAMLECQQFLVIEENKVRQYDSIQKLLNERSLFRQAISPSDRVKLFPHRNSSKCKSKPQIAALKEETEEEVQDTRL

Structure (SMILES): CC(C)(C)c1cc(C(C)(C)C)c(NC(=O)c2c[nH]c3ccccc3c2=O)cc1O [VX-770, N-(2,4-Di-tert-butyl-5-hydroxyphenyl)-4-oxo-1,4-dihydroquinoline-3-carboxamide]
- channel activation: 35 % of WT
